Experimental data: ChEMBL document CHEMBL1123179, “4-Amino-2-(substituted methyl)-2-butenoic acids: substrates and potent inhibitors of gamma-aminobutyric acid aminotransferase” (J Med Chem, 1986)

Biological target: 4-aminobutyrate aminotransferase, mitochondrial (Sus scrofa, UniProt P80147)
Assay: Compound was tested for the inhibitory effect against Gamma-amino-N-butyrate transaminase from pig brain

Chain of 4-aminobutyrate aminotransferase, mitochondrial (P80147 whole entry): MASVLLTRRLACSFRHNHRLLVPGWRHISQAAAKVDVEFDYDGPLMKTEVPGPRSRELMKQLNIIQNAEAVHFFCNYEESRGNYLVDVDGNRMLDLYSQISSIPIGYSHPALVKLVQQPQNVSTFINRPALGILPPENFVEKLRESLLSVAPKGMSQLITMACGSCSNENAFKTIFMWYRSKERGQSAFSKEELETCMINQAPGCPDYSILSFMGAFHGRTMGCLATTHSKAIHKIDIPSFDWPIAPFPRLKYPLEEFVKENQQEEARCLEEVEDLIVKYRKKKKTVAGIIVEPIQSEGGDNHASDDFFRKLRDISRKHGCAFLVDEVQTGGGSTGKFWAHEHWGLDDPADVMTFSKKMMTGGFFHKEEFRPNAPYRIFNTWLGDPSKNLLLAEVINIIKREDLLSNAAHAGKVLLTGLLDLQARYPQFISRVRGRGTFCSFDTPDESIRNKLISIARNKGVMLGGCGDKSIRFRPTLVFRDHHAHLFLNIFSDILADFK

SMILES	Ki [µM]
NC/C=C(\CCl)C(=O)O	24
NC/C=C(\CO)C(=O)O	5
NC/C=C(\CF)C(=O)O	19
